{
  "source": "patent US20100168120A1",
  "about": "“SALTS OF PYRIDAZINE COMPOUNDS” (NEUROMEDIX INC., priority 2006, published 2010)",
  "key": {"[1]": {"test_system": "IL-1β production", "assay": "Inhibition of IL-1β production (glial activation)", "format": "cell-based", "conditions": "in words"}, "[2]": {"test_system": "NO production", "assay": "Inhibition of NO production (glial activation)", "format": "cell-based", "conditions": "read-out: NO, concentration required for 50% inhibition"}, "[3]": {"assay": "logP by octanol/water partition coefficient"}, "[4]": {"assay": "In vitro metabolic stability in rat liver microsomes", "format": "in vitro ADME", "conditions": "5 μM or 25 μM, 10 or 30 min", "method": "(§1) In particular FIG. 3 are bar graphs showing that MW01-9-034WH has improved metabolic stability in rat (A) and human (B) liver microsome incubations compared to minaprine. […] Extracts were prepared, and the amount of compound remaining was analyzed by HPLC using internal standards for recovery."}, "[5]": {"assay": "In vitro metabolic stability in human liver microsomes", "format": "in vitro ADME", "conditions": "5 μM or 25 μM, 10 or 30 min", "method": "as §1"}, "[6]": {"assay": "Chemical stability in water, dilute acid or dilute base", "format": "physicochemical", "conditions": "dilute acid, or dilute base at 37° C. over one week"}, "[7]": {"assay": "in vivo", "method": "Plasma samples obtained from dog pharmacokinetic studies were analyzed using reversed phase HPLC with tandem mass spectrometric detection. Briefly, aliquots of internal standard (200 μl of 200 ng/ml) were added to protein precipitation plates (Sirocco protein precipitation plates, Waters Corporation, Milford, Mass., USA), followed by addition of plasma sample to the plate (50 μl). The plate was shaken for 3 minutes, and then a vacuum (maximum of −10 mm Hg) was applied to the plate for 3 minutes. Extract (75 μl) was transferred into a 2 ml 96-well plate, and to each sample was added 1425 μl of Eluent A (95:5:0.1 MilliQ water:acetonitrile:formic acid). 10 μl was injected onto the reverse phase column (ODS C18; 4×2 mm i.d.; Phenomenex, Torrance, USA). The mobile phase was set to 300 μl/min and eluate by mass spectrometry (APT 5000, Applied Biosystems). Calibration standards were processed along with the samples, and the concentration of Minozac [2-(4-(4-methyl-6-phenylpyridazin-3-yl)piperazin-1-yl)pyrimidine dihydrochloride salt] determined using a regression equation. […] The internal standard was compound code MW01-8-064WH (chemical name: 4-methyl-3-phenyl-6-((4-pyrimidin-2-yl)piperazin-1-yl)pyridazine).\nThe pharmacokinetics of Minozac was determined at 2.5 mg/kg following oral administration by gavage of an aqueous solution.\nIntravenous dosing was also carried out at 2.5 mg/kg, but with drug in a 0.9% saline solution.\nThe pharmacokinetics were determined following oral dosing with a neutralized propylene glycol formulation (FIG. 6) and with filled gelatin capsules at a single dose of 2.5 mg/kg (FIG. 7)."}, "[8]": {"test_system": "human amyloid-beta (Aβ)-induced injury", "assay": "AD-relevant mouse model of human Aβ-induced injury (Aβ infusion model)", "format": "in vivo", "conditions": "hippocampus, […] oral once daily for 2 weeks, dihydrochloride salt", "method": "The efficacy of Minozac in an AD-relevant mouse model of human amyloid-beta (Aβ)-induced injury (infusion of human Aβ peptide) was determined. Briefly, C57BL/6 mice (n=5-10 mice per group) were subjected to either vehicle (Control) or human oligomeric Aβ1-42 intracerebroventricular (ICV) infusion for four weeks. […] Beginning at day 50 after the start of Aβ ICV infusion, the Y-maze test of spontaneous alternation was used to evaluate hippocampus-dependent spatial learning deficits. At day 60 after the start of Aβ ICV infusion, mice were sacrificed, perfused with buffer containing a protease inhibitor cocktail, and the brain was harvested. The brain was longitudinally bisected and the right half of the brain used for histology. The hippocampus was dissected from the left half of the brain. The levels of IL-1β, TNFα, S100B and synaptophysin were measured in hippocampal extracts by ELISA, and postsynaptic density-95 ([…]) levels were determined by Western blotting. Immunohistochemical detection of GFAP-positive astrocytes and F4/80 positive microglia was performed on 10 μm sections."}, "[9]": {"test_system": "LPS inflammation model", "assay": "Systemic proinflammatory cytokine expression after LPS challenge", "format": "in vivo, mouse", "conditions": "15 mg/kg orally for 14 days, LPS challenge day 15, serum at 6 hours", "method": "The effect of Minozac on the systemic expression of proinflammatory cytokines was determined. Briefly, saline (0.9% NaCL) or Minozac (15 mg/kg) was administered orally for 14 days. Mice were challenged with LPS at the 15th day. Mice were sacrificed at 6 hours after LPS challenge and blood harvested for serum. The levels of cytokines TNFα and […] in the serum were measured using the Meso-scale Discovery system according to manufacturer's instructions. The data for TNFα and IL-1β are shown in FIG. 4 as percent of the level observed in the saline treated mice."}, "[10]": {"assay": "physchem", "conditions": "37 °C, water, aqueous solubility"}, "[11]": {"assay": "PK assessment in mice, plasma and brain after single oral dose", "conditions": "C57BL/6, mouse"}},
  "note": "“Also recorded” adds a separate entry of the source. Like-named read-outs stand apart in the source and are kept apart here.",
  "data": [
    {"smiles": "Cc1cc(-c2ccccc2)nnc1N1CCN(C)CC1", "note": "[Compound 11]", "values": [
      {"measurement": "activity (suppression of proinflammatory cytokine production in glia)", "setting": "[1]", "result": "loss of activity; also recorded: diminution of activity"}
    ]},
    {"smiles": "Cc1cc(-c2ccccc2)nnc1N1CCN(c2ncccn2)CC1", "note": "[Compound 5, 4-methyl-6-phenyl-3-(4-pyrimidin-2-ylpiperazin-1-yl)pyridazine]", "values": [
      {"measurement": "selective suppression of IL-1 production compared to NO production", "setting": "[1]", "result": "retained selective suppression"},
      {"measurement": "IC50", "setting": "[2]", "result": "> 25", "unit": "µM"}
    ]},
    {"smiles": "c1ccc(-c2cc(-c3ccccc3)c(N3CCN(c4ncccn4)CC3)nn2)cc1", "note": "[Compound 1, 4,6-diphenyl-3-(4-pyrimidin-2-ylpiperazin-1-yl)pyridazine]", "values": [
      {"measurement": "IC50", "setting": "[2]", "result": "> 25", "unit": "µM"},
      {"measurement": "logP", "setting": "[3]; octanol/water", "result": 2.3}
    ]},
    {"smiles": "Cc1cc(-c2ccccc2)nnc1NCCN1CCOCC1", "note": "[minaprine, reference compound]", "values": [
      {"measurement": "metabolic stability, compound remaining", "setting": "[4]", "result": "majority of minaprine is gone by 10 min"},
      {"measurement": "metabolic stability, compound remaining", "setting": "[5]", "result": "majority of minaprine is gone by 10 min"}
    ]},
    {"smiles": "Cc1cc(-c2ccccc2)nnc1N1CCN(c2ncccn2)CC1.Cl.Cl", "note": "[Compound 6]", "values": [
      {"measurement": "selective suppression of IL-1 production compared to NO production", "setting": "[1]", "result": "lost selectivity"}
    ]},
    {"smiles": "Cc1cc(-c2ccccc2)nnc1N1CCN(c2ncccn2)CC1.Cl.Cl", "note": "[Compound 16, 2-(4-(4-methyl-6-phenylpyridazin-3-yl)piperazin-1-yl)pyrimidine dihydrochloride salt]", "values": [
      {"measurement": "loss of material (chemical stability)", "setting": "[6]", "result": "less than 10%"},
      {"measurement": "metabolic stability, compound remaining", "setting": "[4]", "result": "stable even after 30 min incubation"},
      {"measurement": "metabolic stability, compound remaining", "setting": "[5]", "result": "stable even after 30 min incubation"},
      {"measurement": "Vd", "setting": "[7]; Beagle, dog, iv, […], Vss", "result": "44.5 ± 10.3", "unit": "L"},
      {"measurement": "Vd", "setting": "[7]; Beagle, dog, iv, […], Vz", "result": "95.1 ± 43.6", "unit": "L"},
      {"measurement": "half-life", "setting": "[7]; in vivo, iv, […]", "result": 4.49, "unit": "h"},
      {"measurement": "bioavailability", "setting": "[7]; in vivo, po, […]", "result": 23, "unit": "%"},
      {"measurement": "half-life", "setting": "[7]; in vivo, po, […]", "result": 2.1, "unit": "h"},
      {"measurement": "bioavailability", "setting": "[7]; male, Beagle, dog", "result": 16, "unit": "%"},
      {"measurement": "bioavailability", "setting": "[7]; male, Beagle, dog, po", "result": 21, "unit": "%"},
      {"measurement": "half-life", "setting": "[7]; male, Beagle, dog, po, […], t1/2", "result": 1.47, "unit": "h"},
      {"measurement": "number of activated F4/80-positive microglia", "setting": "[8]", "result": "reduced"},
      {"measurement": "number of activated F4/80-positive microglia", "setting": "[8]; listed as MW01-9-034WH", "result": "decreases"},
      {"measurement": "number of activated F4/80-positive microglia", "setting": "[8]; listed as Minozac", "result": "reduced"},
      {"measurement": "systemic (serum) expression of IL-1β", "setting": "[9]", "result": "no effect"},
      {"measurement": "systemic (serum) expression of TNFα", "setting": "[9]", "result": "no effect"},
      {"measurement": "solubility", "setting": "[10]", "result": "> 322", "unit": "mg/mL"},
      {"measurement": "logP", "setting": "[3]", "result": 2.29},
      {"measurement": "logP", "setting": "[3]; octanol/water", "result": 2.7},
      {"measurement": "Tmax", "setting": "[11]; brain", "result": "~0.25", "unit": "h"},
      {"measurement": "half-life", "setting": "[11]; brain", "result": "~0.75", "unit": "h"},
      {"measurement": "half-life", "setting": "[11]; plasma", "result": "~0.25", "unit": "h"}
    ]}
  ]
}
